Laboratory results from patent US20230295235A1, “COMPOUNDS TARGETING ALPHA4-BETA7 INTEGRIN” (ZEALAND PHARMA A/S, priority 2020, published 2023).

Target: T1, (α4β7-negative Th memory cells) (Homo sapiens, UniProt P05556+P13612)
T1 construct: endogenous in cells; host or cells: human whole blood
Experiment: Competition assay: inhibition of biotinylated rhVCAM-1-Fc binding to α4β7-negative Th memory cells in whole blood (FACS receptor occupancy)
Type: cell-based
Conditions: single donor, 4 mM MnCl2, α4β7-negative Th memory cells, read-out: IC50, VCAM binding
Method: The compound of Example 1 was used in competition assay on CD4+ integrin α4+β7-|o memory T cells.
Receptor occupancy in primary cells was determined by measuring the amount of biotinylated human recombinant MAdCAM-1-Fc or human recombinant VCAM-1-Fc bound to selected cell populations using flow cytometry. Human recombinant MAdCAM-1-Fc or human recombinant VCAM-1-Fc (R&D systems) were biotinylated using commercially available reagents and protocol (Pierce).
Whole blood was collected from human donors in sodium heparin tubes. A volume of 100 µL of blood was incubated with the compound of Example 1 and 4 mM MnCl2 for 1 hour at room temperature. Cells were washed twice with 1 mL of 1X Dulbecco’s phosphate buffered saline (DPBS) calcium magnesium free (CMF) (ThermoFisher Scientific) and resuspended in 100 µL of DPBS CMF. […]
Fluorescence-activated cell sorting (FACS) data was acquired by electronic gating on the basis of forward versus side scatter. […] Cell population were determined using the following markers: CD45+, CD3+, CD4+,CD45RO+, CD49d+, integrin β7, biotinylated ligands.
Compound receptor occupancy was defined as the decrease in the number of integrin β7+ or integrin β7-lo cells binding biotinylated rhMAdCAM-1 or rhVCAM-1, respectively. Receptor occupancy was calculated with the following equation: […]

T1 sequence (P13612 34-1032): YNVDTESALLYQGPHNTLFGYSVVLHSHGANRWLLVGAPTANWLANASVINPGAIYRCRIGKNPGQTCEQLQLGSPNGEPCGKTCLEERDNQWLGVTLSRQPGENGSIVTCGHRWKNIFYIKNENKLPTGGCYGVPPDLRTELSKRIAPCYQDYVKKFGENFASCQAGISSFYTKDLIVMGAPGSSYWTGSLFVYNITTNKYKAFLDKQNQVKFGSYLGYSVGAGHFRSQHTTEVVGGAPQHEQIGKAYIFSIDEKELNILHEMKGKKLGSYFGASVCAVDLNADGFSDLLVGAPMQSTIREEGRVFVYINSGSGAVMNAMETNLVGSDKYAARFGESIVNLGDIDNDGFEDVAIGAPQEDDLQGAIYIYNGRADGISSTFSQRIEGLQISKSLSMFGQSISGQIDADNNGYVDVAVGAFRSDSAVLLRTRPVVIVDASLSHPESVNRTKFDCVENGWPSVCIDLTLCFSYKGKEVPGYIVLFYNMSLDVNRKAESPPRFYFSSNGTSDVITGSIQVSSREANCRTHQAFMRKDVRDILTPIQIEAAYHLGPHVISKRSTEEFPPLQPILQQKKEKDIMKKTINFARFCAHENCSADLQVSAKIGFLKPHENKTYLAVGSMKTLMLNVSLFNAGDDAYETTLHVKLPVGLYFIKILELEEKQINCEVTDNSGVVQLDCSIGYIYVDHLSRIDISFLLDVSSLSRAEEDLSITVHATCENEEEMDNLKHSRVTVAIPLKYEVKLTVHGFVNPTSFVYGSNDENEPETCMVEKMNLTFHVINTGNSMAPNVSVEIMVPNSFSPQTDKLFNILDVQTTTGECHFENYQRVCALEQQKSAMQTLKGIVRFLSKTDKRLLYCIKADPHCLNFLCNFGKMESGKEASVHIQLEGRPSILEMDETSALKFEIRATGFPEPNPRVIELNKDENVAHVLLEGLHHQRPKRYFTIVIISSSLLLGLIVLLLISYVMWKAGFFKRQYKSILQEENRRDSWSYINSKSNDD
T1 sequence (P05556 21-798): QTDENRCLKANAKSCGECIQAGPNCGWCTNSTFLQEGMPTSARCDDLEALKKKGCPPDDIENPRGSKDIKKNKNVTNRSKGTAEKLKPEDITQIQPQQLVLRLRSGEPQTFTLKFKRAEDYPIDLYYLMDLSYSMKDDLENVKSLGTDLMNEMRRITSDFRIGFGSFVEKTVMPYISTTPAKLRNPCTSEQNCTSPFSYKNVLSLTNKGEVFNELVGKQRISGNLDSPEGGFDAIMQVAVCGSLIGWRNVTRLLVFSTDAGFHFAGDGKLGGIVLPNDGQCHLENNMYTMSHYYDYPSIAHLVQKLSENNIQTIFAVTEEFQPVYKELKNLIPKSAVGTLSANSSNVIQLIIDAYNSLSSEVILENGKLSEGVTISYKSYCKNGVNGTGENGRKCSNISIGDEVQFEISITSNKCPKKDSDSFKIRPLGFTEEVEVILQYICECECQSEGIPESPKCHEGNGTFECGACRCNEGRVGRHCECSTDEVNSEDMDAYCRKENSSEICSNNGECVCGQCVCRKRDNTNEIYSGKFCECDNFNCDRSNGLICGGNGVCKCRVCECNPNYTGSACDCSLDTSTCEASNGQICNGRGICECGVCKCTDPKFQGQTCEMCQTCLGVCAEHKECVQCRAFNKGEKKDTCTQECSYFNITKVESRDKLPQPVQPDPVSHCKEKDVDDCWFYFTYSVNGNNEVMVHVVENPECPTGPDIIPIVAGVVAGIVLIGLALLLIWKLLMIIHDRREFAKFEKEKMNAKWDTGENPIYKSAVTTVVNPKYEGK

SMILES: CC(C)C[C@@H]1NC(=O)c2ccc(-c3ccc(N4CCN(C(=O)c5ccccc5-c5ccccc5C(=O)N5CCN(c6ccc(-c7ccc8cc7CNC(=O)[C@@H]7CCCN7[C@H](C(=O)NC(C)(C)C)[C@H](C)NC(=O)[C@H]([C@@H](C)O)NC(=O)[C@H](CC(=O)O)NC(=O)[C@H](CC(C)C)NC8=O)cc6)CC5)CC4)cc3)c(c2)CNC(=O)[C@@H]2CCCN2[C@H](C(=O)NC(C)(C)C)[C@H](C)NC(=O)[C@H]([C@@H](C)O)NC(=O)[C@H](CC(=O)O)NC1=O [Example 1, 2,2′-((S,S,S,S,S,S,1^2,8S,11S,14S,17S,18S)-((([1,1′-Biphenyl]-2,2′-Dicarbonyl)-Bis(Piperazine-4,1-Diyl))Bis(4,1-Phenylene))Bis(18-(Tert-Butylcarbamoyl)-14-((R)-1-Hydroxyethyl)-8-Isobutyl-17-Methyl-2,6,9,12,15-Pentaoxo-3,7,10,13,16-Pentaaza-1(2,1)-Pyrrolidina-5(1,3)-Benzenacyclooctadecaphane-5^6,11-Diyl))-Diacetic Acid]
- IC50: ~0.6 µM
